{"source": "paper PMC7617869", "about": "“Molecular glues that inhibit deubiquitylase activity and inflammatory signaling” (Nature Structural & Molecular Biology, 2025)", "key": {"HsBRISCΔLoop (Δ184–208)": {"target": "HsBRISCΔLoop (Δ184–208) (Homo sapiens, UniProt P46736+Q15018+Q9NXR7)", "test": "HsBRISCΔLoop IQF DUB activity assay", "format": "biochemical", "experimental": "(§1) IQF assays were performed in DUB reaction buffer containing 50 mM HEPES–NaOH pH 7.0, 100 mM NaCl, 0.1 mg ml^−1 BSA, 1 mM DTT and 0.03% v/v Brij-35. […] The final concentration of BRISC WT, all BRISC mutants, HsBRISCΔLoop, MmBRISC and DrBRISCΔNΔC was 1 nM. Other enzymes were tested at the following concentrations: 5 nM ARISC (FL), 10 nM CfBRISCΔNΔC, 250 nM AMSH* (ref. [43]), 500 nM USP2 and 1 μM trypsin (Sigma, 9002-07-7). For Michaelis–Menten experiments, 1 nM BRISC with 0–1 μM IQF K63-linked diubiquitin substrate was used. Michaelis–Menten analyses and Lineweaver–Burk plots were calculated using GraphPad Prism (version 9.0).\n(§2) To assess enzymatic activity, BRISC complexes were diluted to concentrations between 1 nM and 50 nM. […] Then, 20-μl enzyme reactions were carried out in 384-well black flat-bottom low-flange plates (Corning, 35373). DUB activity was measured using IQF K63-linked diubiquitin (LifeSensors, DU6303) at 50 nM. Cleaved diubiquitin was monitored by measuring fluorescence intensity (excitation, 544 nm; emission, 575 nm; dichroic mirror, 560 nm). Fluorescence intensity was measured every minute for 30 min at 30 °C. Fluorescence intensity units were plotted against time to generate a linear reaction progress curve, where the initial velocity (V0) corresponds to the gradient of the curve (typically achieved within 15 min). IC50 values were calculated using the GraphPad Prism (version 9.0) built-in dose–response equation for inhibitor concentration versus response (variable slope)."}, "USP2": {"target": "T1, USP2 (Homo sapiens, UniProt O75604)", "T1 construct": "His (N, cleaved yes); host or cells: Escherichia coli BL21(DE3)", "T1 sequence (O75604 258-605 limits assumed)": "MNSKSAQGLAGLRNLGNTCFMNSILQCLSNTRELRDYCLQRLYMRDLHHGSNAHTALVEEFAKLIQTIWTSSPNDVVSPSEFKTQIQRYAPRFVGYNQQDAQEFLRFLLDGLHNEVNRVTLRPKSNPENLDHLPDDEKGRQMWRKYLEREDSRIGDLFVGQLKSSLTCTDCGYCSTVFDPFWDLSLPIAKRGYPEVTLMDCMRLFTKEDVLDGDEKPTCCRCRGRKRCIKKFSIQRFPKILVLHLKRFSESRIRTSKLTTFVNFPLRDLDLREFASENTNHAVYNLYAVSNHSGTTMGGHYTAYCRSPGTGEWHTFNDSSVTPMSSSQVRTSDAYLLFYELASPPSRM", "test": "USP2 IQF diubiquitin selectivity assay", "format": "biochemical", "settings": "Fig. 1g, USP2", "experimental": "BRISC DUB activity was measured at room temperature using 1 nM BRISC and 500 nM IQF diubiquitin K63 substrate (LifeSensors, DU6303) in the presence of DMSO and compounds at 10 μM (final concentrations). Assays were performed in 384-well black flat-bottom low-flange plates (Corning, 35373) in buffer containing 50 mM HEPES–NaOH pH 7.0, 100 mM NaCl, 1 mg ml^−1 BSA, 1 mM DTT and 0.03% v/v Brij-35. Then, 10 μl of twofold concentrated enzyme stock was dispensed, followed by transfer of 200 nl of compounds (1 mM stock) using a 384-pin tool and a 15-min incubation at room temperature. Then, 10 μl of twofold concentrated substrate stock was added and the reaction was monitored by measuring fluorescence intensity (excitation, 540 nm; emission, 580 nm) after 20-min incubation at room temperature and ~50% of substrate was consumed. Orthogonal assays for verification of H20 and P12 hit compounds using USP2 (100 nM) and trypsin (125 nM) were performed in identical conditions.\nas §1, §2"}, "ARISC (FL)": {"target": "T2, ARISC (FL) (Homo sapiens, UniProt P46736+Q6UWZ7+Q9NXR7)", "T2 construct": "full-length BRISC (FL), ARISC (FL); made in house; host or cells: Spodoptera frugiperda Sf9 insect cells (MultiBac)", "test": "In-gel deubiquitylation assay, TAMRA-labeled K63-tetraubiquitin, ARISC", "format": "biochemical", "settings": "10 μM or 100 μM inhibitor", "experimental": "The inhibitor capzimin (Merck) was diluted in 1 mM DTT and incubated for 30 min at room temperature to reduce disulfide bonds required for inhibitor activity. […] DUBs were incubated with 750 nM TAMRA-labeled K63-tetraubiquitin (LifeSensors, SI6304T) for 10 min at 30 °C. Reactions were quenched by adding 2.5 μl of 4× SDS–PAGE loading dye (240 mM Tris-HCl pH 6.8, 40% v/v glycerol, 8% w/v SDS, 0.04% w/v bromophenol blue and 5% v/v β-mercaptoethanol). The samples were resolved on 4–12% NuPAGE Bis–Tris gels (Thermo Fisher Scientific). Gels were scanned using an iBright FL 1500 (Thermo Fisher Scientific) (excitation, 515–545 nm; emission, 568–617 nm; exposure, 500 ms)."}, "[1]": {"system": "ISG expression in MCF10A Cas9 cells expressing BRCC45 WT", "test": "MCF10A BRCC45 WT ISG expression (RT–qPCR)", "format": "cell-based, human", "settings": "hIFNα2 75 ng/ml, 2.5 μM, 4 h"}}, "note": "Several values for one entry are separate records, joined by “and”; a condition that tells them apart may be missing. Equal values may be shown once.", "data": [{"smiles": "O=C(NC1C2CNCC21)c1nn(C(=O)c2c(Cl)cccc2Cl)cc1NC(=O)c1c(Cl)cccc1Cl", "note": "(stereo not drawn) [FX-171-C]", "values": [{"measurement": "remaining activity at 0.013 µM", "setting": "HsBRISCΔLoop (Δ184–208); HsBRISCΔLoop, FX-171-C 0.013 μM, read-out: Normalised V0", "value": 87.6, "unit": "%"}, {"measurement": "remaining activity at 0.02 µM", "setting": "HsBRISCΔLoop (Δ184–208); HsBRISCΔLoop, FX-171-C 0.02 μM, read-out: Normalised V0", "value": 103, "unit": "%"}, {"measurement": "remaining activity at 0.0399999 µM", "setting": "HsBRISCΔLoop (Δ184–208); HsBRISCΔLoop, FX-171-C 0.0399999 μM, read-out: Normalised V0", "value": 90.4, "unit": "%"}, {"measurement": "remaining activity at 0.0599997 µM", "setting": "HsBRISCΔLoop (Δ184–208); HsBRISCΔLoop, FX-171-C 0.0599997 μM, read-out: Normalised V0", "value": 102, "unit": "%"}, {"measurement": "remaining activity at 0.0799994 µM", "setting": "HsBRISCΔLoop (Δ184–208); HsBRISCΔLoop, FX-171-C 0.0799994 μM, read-out: Normalised V0", "value": 93.6, "unit": "%"}, {"measurement": "remaining activity at 0.119998 µM", "setting": "HsBRISCΔLoop (Δ184–208); HsBRISCΔLoop, FX-171-C 0.119998 μM, read-out: Normalised V0", "value": 102, "unit": "%"}, {"measurement": "remaining activity at 0.199996 µM", "setting": "HsBRISCΔLoop (Δ184–208); HsBRISCΔLoop, FX-171-C 0.199996 μM, read-out: Normalised V0", "value": 84.1, "unit": "%"}, {"measurement": "remaining activity at 0.499975 µM", "setting": "HsBRISCΔLoop (Δ184–208); HsBRISCΔLoop, FX-171-C 0.499975 μM, read-out: Normalised V0", "value": 99, "unit": "%"}, {"measurement": "remaining activity at 0.799937 µM", "setting": "HsBRISCΔLoop (Δ184–208); HsBRISCΔLoop, FX-171-C 0.799937 μM, read-out: Normalised V0", "value": 98.4, "unit": "%"}, {"measurement": "remaining activity at 1.25984 µM", "setting": "HsBRISCΔLoop (Δ184–208); HsBRISCΔLoop, FX-171-C 1.25984 μM, read-out: Normalised V0", "value": 86.2, "unit": "%"}, {"measurement": "remaining activity at 1.9996 µM", "setting": "HsBRISCΔLoop (Δ184–208); HsBRISCΔLoop, FX-171-C 1.9996 μM, read-out: Normalised V0", "value": 93.3, "unit": "%"}, {"measurement": "remaining activity at 3.159 µM", "setting": "HsBRISCΔLoop (Δ184–208); HsBRISCΔLoop, FX-171-C 3.159 μM, read-out: Normalised V0", "value": 82, "unit": "%"}, {"measurement": "remaining activity at 5.19739 µM", "setting": "HsBRISCΔLoop (Δ184–208); HsBRISCΔLoop, FX-171-C 5.19739 μM, read-out: Normalised V0", "value": 89, "unit": "%"}, {"measurement": "remaining activity at 7.99364 µM", "setting": "HsBRISCΔLoop (Δ184–208); HsBRISCΔLoop, FX-171-C 7.99364 μM, read-out: Normalised V0", "value": 69.7, "unit": "%"}, {"measurement": "remaining activity at 12.7839 µM", "setting": "HsBRISCΔLoop (Δ184–208); HsBRISCΔLoop, FX-171-C 12.7839 μM, read-out: Normalised V0", "value": 65.1, "unit": "%"}, {"measurement": "remaining activity at 19.96 µM", "setting": "HsBRISCΔLoop (Δ184–208); HsBRISCΔLoop, FX-171-C 19.96 μM, read-out: Normalised V0", "value": 50.7, "unit": "%"}, {"measurement": "remaining activity at 31.4999 µM", "setting": "HsBRISCΔLoop (Δ184–208); HsBRISCΔLoop, FX-171-C 31.4999 μM, read-out: Normalised V0", "value": 45.4, "unit": "%"}, {"measurement": "remaining activity at 50.147 µM", "setting": "HsBRISCΔLoop (Δ184–208); HsBRISCΔLoop, FX-171-C 50.147 μM, read-out: Normalised V0", "value": 24.3, "unit": "%"}, {"measurement": "remaining activity at 79.7601 µM", "setting": "HsBRISCΔLoop (Δ184–208); HsBRISCΔLoop, FX-171-C 79.7601 μM, read-out: Normalised V0", "value": 18.2, "unit": "%"}, {"measurement": "change of inhibitor sensitivity on deletion of BRCC36 loop (184–208)", "setting": "HsBRISCΔLoop (Δ184–208); vs human BRISC", "value": "reduced inhibitor sensitivity approximately tenfold"}, {"measurement": "Normalised V0", "setting": "USP2; FX-171-C 0.02 μM", "value": "1.153 and 1.005 and 0.8911"}, {"measurement": "Normalised V0", "setting": "USP2; FX-171-C 0.0399999 μM", "value": "1.181 and 1.054 and 0.8345"}, {"measurement": "Normalised V0", "setting": "USP2; FX-171-C 0.0599997 μM", "value": "1.101 and 1.035 and 0.8564"}, {"measurement": "Normalised V0", "setting": "USP2; FX-171-C 0.0799994 μM", "value": "1.262 and 0.9465 and 0.964"}, {"measurement": "Normalised V0", "setting": "USP2; FX-171-C 0.119998 μM", "value": "1.156 and 1.12 and 1.0155"}, {"measurement": "Normalised V0", "setting": "USP2; FX-171-C 0.199996 μM", "value": "1.162 and 0.9867 and 0.9385"}, {"measurement": "Normalised V0", "setting": "USP2; FX-171-C 0.499975 μM", "value": "1.323 and 0.7865 and 0.9403"}, {"measurement": "Normalised V0", "setting": "USP2; FX-171-C 0.799936 μM", "value": "1.167 and 0.9524 and 0.9376"}, {"measurement": "Normalised V0", "setting": "USP2; FX-171-C 1.25984 μM", "value": "1.254 and 0.9797 and 0.8377"}, {"measurement": "Normalised V0", "setting": "USP2; FX-171-C 1.9996 μM", "value": "1.211 and 0.9571 and 0.9503"}, {"measurement": "Normalised V0", "setting": "USP2; FX-171-C 3.159 μM", "value": "1.329 and 0.7564 and 0.948"}, {"measurement": "Normalised V0", "setting": "USP2; FX-171-C 5.19739 μM", "value": "1.206 and 0.9941 and 0.9284"}, {"measurement": "Normalised V0", "setting": "USP2; FX-171-C 7.99364 μM", "value": "1.269 and 0.9668 and 0.7862"}, {"measurement": "Normalised V0", "setting": "USP2; FX-171-C 12.7839 μM", "value": "1.167 and 1.027 and 0.9175"}, {"measurement": "Normalised V0", "setting": "USP2; FX-171-C 19.96 μM", "value": "1.282 and 0.8934 and 0.9216"}, {"measurement": "Normalised V0", "setting": "USP2; FX-171-C 31.4999 μM", "value": "1.071 and 0.9617 and 0.949"}, {"measurement": "Normalised V0", "setting": "USP2; FX-171-C 50.147 μM", "value": "1.087 and 1.072 and 0.8163"}, {"measurement": "Normalised V0", "setting": "USP2; FX-171-C 79.7601 μM", "value": "1.1 and 0.8638 and 0.912"}, {"measurement": "Normalised V0", "setting": "USP2; FX-171-C 125.99 μM", "value": "1.048 and 0.9793 and 0.8997"}, {"measurement": "Normalised V0", "setting": "USP2; FX-171-C 199.922 μM", "value": "1.047 and 0.829 and 0.8108"}, {"measurement": "inhibition of ARISC activity against tetraubiquitin", "setting": "ARISC (FL)", "value": "did not inhibit"}, {"measurement": "ISG expression (ISG15, IFIT1, IFIT2, IFITM1, CXCL10)", "setting": "[1]", "value": "reduced gene expression for all five ISGs"}]}]}
